“Also recorded” adds a separate entry of the source. Where two headings read alike, the source gives them in different places.
B1: α-Cobratoxin: α-neurotoxin, peptide toxin from elapid venom (protein)
chain: IRCFITPDITSKDCPNGHVCYTKTWCDAFCSIRGKRVDLGCAATCPTVKTGVDIQCCSTDNCNPFPTRKRP

Assays:
Lymnaea AChBP [1] = target: T1, Lymnaea AChBP (Lymnaea stagnalis, UniProt P58154); assay: biochemical; format: binding
Aplysia AChBP [2] = target: T2, Aplysia AChBP (Aplysia californica, UniProt Q8WSF8); assay: biochemical; format: binding
T2 sequence (Q8WSF8 18-236): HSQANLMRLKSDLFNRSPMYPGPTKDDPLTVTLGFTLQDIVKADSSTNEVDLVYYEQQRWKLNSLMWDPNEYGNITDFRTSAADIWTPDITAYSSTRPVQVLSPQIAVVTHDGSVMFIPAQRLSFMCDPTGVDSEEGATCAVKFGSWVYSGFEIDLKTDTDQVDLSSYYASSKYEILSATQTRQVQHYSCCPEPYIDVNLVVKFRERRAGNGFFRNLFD

Lymnaea AChBP [3] = target: T1, Lymnaea AChBP; conditions: read-out: Lymnaea Kd; cited from earlier work
Target sequence in this assay (P58154 20-229 limits assumed): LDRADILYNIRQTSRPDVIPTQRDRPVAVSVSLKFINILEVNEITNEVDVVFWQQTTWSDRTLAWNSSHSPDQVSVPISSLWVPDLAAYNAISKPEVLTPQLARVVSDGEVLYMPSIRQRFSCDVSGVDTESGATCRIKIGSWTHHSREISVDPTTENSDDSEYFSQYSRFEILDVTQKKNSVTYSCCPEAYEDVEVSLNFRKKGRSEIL

Aplysia AChBP [4] = target: T2, Aplysia AChBP; assay: biochemical; format: binding; remark: listed apart in the source
Lymnaea AChBP [5] = target: T1, Lymnaea AChBP; assay: biochemical; format: binding; remark: listed apart in the source
Target sequence in this assay (P58154 20-229 limits assumed): as above

Lymnaea AChBP [6] = target: T1, Lymnaea AChBP; format: binding
Target sequence in this assay (P58154 20-229 limits assumed): as above

Row | Molecule | k1 (Lymnaea AChBP [1]) | k−1 (Lymnaea AChBP [1]) | Kd (Lymnaea AChBP [1]; read-out: Kd) | Kd Ratio L/A (Aplysia AChBP [2]) | k1 Aplysia (Aplysia AChBP [2]) | k−1 Aplysia (Aplysia AChBP [2]) | k1 Lymnaea (Lymnaea AChBP [1]) | k−1 Lymnaea (Lymnaea AChBP [1]) | Kd (Aplysia AChBP [4]) | change of tryptophan fluorescence on binding, A-AChBP (Aplysia AChBP [4]) | Kd (Lymnaea AChBP [1]) | other results
1 | 5-Dimethylaminonaphthylsulfonamidoethyltrimethylammonium [Dansyl-C2-choline] | 2.1e+08 M⁻¹ s⁻¹ | 2.9 s⁻¹ | 14 nM | – | – | – | – | – | – | – | – | –
2 | 5-Dimethylaminonaphthylsulfonamidohexyltrimethylammonium [Dansyl-C6-choline] | 1.3e+08 M⁻¹ s⁻¹ | 7.6 s⁻¹ | 58 nM | 0.069 | – | – | – | – | – | – | – | Kd (Lymnaea AChBP [3]): 110 nM; Kd (Aplysia AChBP [4]; read-out: Aplysia Kd): 1600 nM
3 | CN1CCCC1c1cccnc1 (single isomer, unassigned; (-)) [(−)-Nicotine] | 1.5e+08 M⁻¹ s⁻¹ | 5.7 s⁻¹ | – | – | 2.3e+08 M⁻¹ s⁻¹ | 49 s⁻¹ | 1.5e+08 M⁻¹ s⁻¹ | 5.7 s⁻¹ | 245 nM | markedly quenched fluorescence | – | change of tryptophan fluorescence on binding, L-AChBP (Lymnaea AChBP [5]): markedly quenched fluorescence
4 | CC(=O)OCC[N+](C)(C)C [Acetylcholine] | – | – | – | – | – | – | – | – | 33000 nM | – | – | –
5 | C[N+](C)(C)CCOC(N)=O [Carbachol] | – | – | – | 0.023 | – | – | – | – | 240000 nM | enhanced fluorescence emission | – | Kd (Lymnaea AChBP [5]): 5600 nM
6 | C[N+](C)(C)CCCCCCCCCC[N+](C)(C)C [Decamethonium] | 3.2 ± 0.17 ×10^8 M^−1 s^−1 | 120 ± 17 s⁻¹ | – | – | – | – | – | – | – | – | 380 nM | –
7 | Clc1ccc(C2CC3CCC2N3)cn1 (stereo not shown) [Epibatidine] | 1.7 ± 0.26 ×10^8 M^−1 s^−1 | 0.027 ± 0.037 s⁻¹ | – | 0.011 | 2.5e+08 M⁻¹ s⁻¹ | 3.4 s⁻¹ | 1.7e+08 M⁻¹ s⁻¹ | 0.027 s⁻¹ | – | markedly quenched fluorescence | 0.16 nM | Kd (Aplysia AChBP [2]): 14 nM; change of tryptophan fluorescence on binding, L-AChBP (Lymnaea AChBP [5]): markedly quenched fluorescence; quenching of the intrinsic tryptophan fluorescence (Lymnaea AChBP [6]): about 50%
8 | CC[N+](CC)(CC)CCOc1cccc(OCC[N+](CC)(CC)CC)c1OCC[N+](CC)(CC)CC [Gallamine] | 2.5 ± 0.14 ×10^8 M^−1 s^−1 | 36 ± 6.5 s⁻¹ | – | 1.2 | 2.5e+08 M⁻¹ s⁻¹ | 65 s⁻¹ | 2.5e+08 M⁻¹ s⁻¹ | 36 s⁻¹ | 120 nM | enhanced fluorescence emission | 140 nM | change of tryptophan fluorescence on binding, L-AChBP (Lymnaea AChBP [5]): enhanced tryptophan fluorescence; change of tryptophan fluorescence on binding, Lymnaea AChBP (Example 1) (Lymnaea AChBP [1]): enhancement of the tryptophan fluorescence; also recorded: increase in fluorescence
9 | CCN1C[C@]2(COC(=O)c3ccccc3N3C(=O)C[C@H](C)C3=O)CC[C@H](OC)[C@@]34[C@@H]5C[C@H]6[C@H](OC)[C@@H]5[C@](O)(C[C@@H]6OC)[C@@](O)([C@@H](OC)[C@H]23)[C@@H]14 [Methyllycaconitine] | – | – | – | 0.14 | 4.4e+07 M⁻¹ s⁻¹ | 0.12 s⁻¹ | 1.3e+07 M⁻¹ s⁻¹ | 0.005 s⁻¹ | – | – | – | Kd (Aplysia AChBP [2]): 2.8 nM; Kd (Lymnaea AChBP [3]): 0.41 nM
10 | O=C1C[C@@H]2OCC=C3CN4CC[C@]56c7ccccc7N1[C@H]5[C@H]2[C@H]3C[C@H]46 [Strychnine] | – | – | – | – | – | – | – | – | – | – | 23 nM | Kd (Aplysia AChBP [2]): 15 nM
11 | COc1cc2c3cc1Oc1cc(ccc1O)C[C@@H]1c4c(cc(OC)c(O)c4Oc4ccc(cc4)C[C@@H]3N(C)CC2)CC[N+]1(C)C [d-Tubocurarine] | 2e+08 M⁻¹ s⁻¹ | 30 s⁻¹ | 150 nM | – | – | – | – | – | – | – | – | –
12 | α-Bungarotoxin | 0.0097 ± 0.002 ×10^8 M^−1 s^−1 | 0.0017 ± 0.0003 s⁻¹ | 1.8 nM | 0.0071 | 1e+06 M⁻¹ s⁻¹ | 0.32 s⁻¹ | 900000 M⁻¹ s⁻¹ | 0.001 s⁻¹ | – | – | – | rate of association slower than for epibatidine (Lymnaea AChBP [1]): ~200 fold; unimolecular step k2 (slow phase limiting value) (Lymnaea AChBP [1]): 0.34 s⁻¹; Kd (Lymnaea AChBP [3]): 1.8 nM; lower affinity for A-AChBP than for L-AChBP (Aplysia AChBP [4]): 100 fold; Kd (Aplysia AChBP [4]; read-out: Aplysia Kd): 250 nM; quenching of the intrinsic tryptophan fluorescence (Lymnaea AChBP [6]): 15-20%
13 | B1 | 3.3e+06 M⁻¹ s⁻¹ | 0.011 s⁻¹ | 3.2 nM | – | – | – | – | – | – | – | – | –
